Experimental data reported in the supplement of paper PMC13207355.

How the values were obtained:
Conditions in all cases: exposure time: 72 h
E21 [1] = patient-derived glioblastoma stem cells of mesenchymal subtype; experiment: phenotypic distance (Euclidean, principal components) from DMSO controls (arbitrary units); higher = stronger morphological change
E13 [2] = patient-derived glioblastoma stem cells of classical subtype; experiment: as above
E28 [3] = patient-derived glioblastoma stem cells of classical subtype; experiment: as above
E34 [4] = patient-derived glioblastoma stem cells of proneural subtype; experiment: as above
E31 [5] = patient-derived glioblastoma stem cells of proneural subtype; experiment: as above
E57 [6] = patient-derived glioblastoma stem cells of mesenchymal subtype; experiment: as above
FT3469 [7] = normal neural stem cell line; experiment: as above
E21 [8] = experiment: surviving fraction (nuclei count normalised to DMSO); higher = more cells surviving (less toxic)
E13 [9] = experiment: as above
E28 [10] = experiment: as above
E34 [11] = experiment: as above
E31 [12] = experiment: as above
E57 [13] = experiment: as above
FT3469 [14] = experiment: as above
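Throughout, for phenotypic distance (Euclidean, principal components) from DMSO controls: cell Painting imaging in 384-well plates, CellProfiler features reduced to at least 20 principal components, Euclidean distance versus same-plate DMSO vehicle wells (0.1% v/v), median over six images per well.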
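Throughout, for surviving fraction (nuclei count normalised to DMSO): nuclei counted by high-content imaging of Hoechst-stained cells in laminin-coated 384-well plates, relative to 0.1% DMSO vehicle wells, with staurosporine as cell-death control.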

CCOC(=O)OC(C)OC1=C(C(=O)Nc2ccccn2)N(C)S(=O)(=O)c2ccccc21 (stereo not drawn) [Ampiroxicam]
Conditions | phenotypic distance | surviving fraction
E13 [2], 4.1 nM | 0.946 | –
E13 [2], 12.3 nM | 0.661 | –
E13 [2], 37 nM | 0.814 | –
E13 [2], 111.1 nM | 0.688 | –
E13 [2], 333.3 nM | 0.952 | –
E13 [2], 1000 nM | 0.72 | –
E13 [2], 3000 nM | 0.529 | –
E13 [9], 4.1 nM | – | 0.882
E13 [9], 12.3 nM | – | 0.885
E13 [9], 37 nM | – | 1.02
E13 [9], 111.1 nM | – | 0.926
E13 [9], 333.3 nM | – | 1.08
E13 [9], 1000 nM | – | 0.895
E13 [9], 3000 nM | – | 0.916
E21 [1], 4.1 nM | 0.574 | –
E21 [1], 12.3 nM | 0.804 | –
E21 [1], 37 nM | 0.922 | –
E21 [1], 111.1 nM | 0.659 | –
E21 [1], 333.3 nM | 0.834 | –
E21 [1], 1000 nM | 0.819 | –
E21 [1], 3000 nM | 0.71 | –
E21 [8], 4.1 nM | – | 0.957
E21 [8], 12.3 nM | – | 0.928
E21 [8], 37 nM | – | 0.953
E21 [8], 111.1 nM | – | 0.847
E21 [8], 333.3 nM | – | 1.09
E21 [8], 1000 nM | – | 0.883
E21 [8], 3000 nM | – | 1.01
E28 [3], 4.1 nM | 1.28 | –
E28 [3], 12.3 nM | 0.987 | –
E28 [3], 37 nM | 0.538 | –
E28 [3], 111.1 nM | 0.744 | –
E28 [3], 333.3 nM | 0.444 | –
E28 [3], 1000 nM | 0.516 | –
E28 [3], 3000 nM | 0.705 | –
E28 [10], 4.1 nM | – | 0.815
E28 [10], 12.3 nM | – | 1.1
E28 [10], 37 nM | – | 0.896
E28 [10], 111.1 nM | – | 0.884
E28 [10], 333.3 nM | – | 0.939
E28 [10], 1000 nM | – | 1.08
E28 [10], 3000 nM | – | 0.871
E31 [5], 4.1 nM | 0.739 | –
E31 [5], 12.3 nM | 0.998 | –
E31 [5], 37 nM | 0.78 | –
E31 [5], 111.1 nM | 0.734 | –
E31 [5], 333.3 nM | 0.689 | –
E31 [5], 1000 nM | 0.71 | –
E31 [5], 3000 nM | 0.801 | –
E31 [12], 4.1 nM | – | 0.83
E31 [12], 12.3 nM | – | 0.849
E31 [12], 37 nM | – | 0.967
E31 [12], 111.1 nM | – | 1
E31 [12], 333.3 nM | – | 0.856
E31 [12], 1000 nM | – | 1.02
E31 [12], 3000 nM | – | 1.08
E34 [4], 4.1 nM | 0.789 | –
E34 [4], 12.3 nM | 0.855 | –
E34 [4], 37 nM | 0.505 | –
E34 [4], 111.1 nM | 0.762 | –
E34 [4], 333.3 nM | 0.521 | –
E34 [4], 1000 nM | 0.542 | –
E34 [4], 3000 nM | 0.73 | –
E34 [11], 4.1 nM | – | 1.14
E34 [11], 12.3 nM | – | 0.946
E34 [11], 37 nM | – | 0.986
E34 [11], 111.1 nM | – | 1.1
E34 [11], 333.3 nM | – | 1.01
E34 [11], 1000 nM | – | 0.932
E34 [11], 3000 nM | – | 0.984
E57 [6], 4.1 nM | 0.796 | –
E57 [6], 12.3 nM | 0.83 | –
E57 [6], 37 nM | 0.552 | –
E57 [6], 111.1 nM | 0.54 | –
E57 [6], 333.3 nM | 0.507 | –
E57 [6], 1000 nM | 1.03 | –
E57 [6], 3000 nM | 0.908 | –
E57 [13], 4.1 nM | – | 0.955
E57 [13], 12.3 nM | – | 1.02
E57 [13], 37 nM | – | 0.962
E57 [13], 111.1 nM | – | 1.02
E57 [13], 333.3 nM | – | 0.943
E57 [13], 1000 nM | – | 1.06
E57 [13], 3000 nM | – | 1.08
FT3469 [7], 4.1 nM | 0.638 | –
FT3469 [7], 12.3 nM | 0.959 | –
FT3469 [7], 37 nM | 0.379 | –
FT3469 [7], 111.1 nM | 1.16 | –
FT3469 [7], 333.3 nM | 0.73 | –
FT3469 [7], 1000 nM | 1.03 | –
FT3469 [7], 3000 nM | 0.924 | –
FT3469 [14], 4.1 nM | – | 0.768
FT3469 [14], 12.3 nM | – | 1.05
FT3469 [14], 37 nM | – | 1.02
FT3469 [14], 111.1 nM | – | 1.05
FT3469 [14], 333.3 nM | – | 1.04
FT3469 [14], 1000 nM | – | 1.08
FT3469 [14], 3000 nM | – | 0.95
